Test: Ocular pharmacokinetics in rabbit eyes
Type: in vivo, New Zealand white rabbits
Conditions: intravitreal injection, listed as compound of the invention
Experimental: The objective of this assay was to determine the pharmacokinetics of the test compound in rabbit ocular tissues.
The compound of the invention, 5-ethyl-2-fluoro-4-(3-(5-(1-methylpiperidin-4-yl)-4,5,6,7-tetrahydro-1H-imidazo[4,5-c]pyridin-2-yl)-1H-indazol-6-yl)phenol (1) was dissolved in either 10% 2-hydroxypropyl-β-cyclodextrin to attain a target concentration of 4 mg/mL or in purified water to attain a target concentration of 1 mg/mL. Bilateral intravitreal injection (50 μL/eye) of the solution of test compound was administered to New Zealand white rabbits in two dose groups, 200 μg/eye and 50 μg/eye, respectively, for the cyclodextrin and water vehicle formulations, respectively. The test compound concentration was measured in ocular tissues: vitreous, aqueous, retina/choroid and iris-ciliary body at pre-determined time points post injection (30 min, 4 h, 1 d, 3 d, 7 d, 14 d). Two rabbits (four eyes) were dosed for each time point.
A suspension formulation was prepared by combining crystalline compound 1 of Example 1 with 0.5% hydroxypropyl methylcellulose (HPMC E5)+0.02% Tween 80 to attain a target concentration of 10 mg/mL. Bilateral intravitreal injection (50 μL/eye) of the suspension of test compound was administered to New Zealand white rabbits (500 μg/eye). The test compound concentration was measured in ocular tissues as in the […] at 30 min, 2 wks, 4 wks, 6 wks, and 8 wks post injection. […] The behavior is consistent with the solubility of compound 1 in the vehicle and the ocular pharmacokinetic behavior in the solution formulation. The drug concentration in plasma was measured and found to be at least 3 orders of magnitude lower than the concentration in vitreous tissue.

With CCc1cc(O)c(F)cc1-c1ccc2c(-c3nc4c([nH]3)CCN(C3CCN(C)CC3)C4)n[nH]c2c1 [compound 1, 5-ethyl-2-fluoro-4-(3-(5-(1-methylpiperidin-4-yl)-4,5,6,7-tetrahydro-1H-imidazo[4,5-c]pyridin-2-yl)-1H-indazol-6-yl)phenol] the “drug concentration in plasma lower than concentration in vitreous tissue” value was “at least three orders of magnitude lower”.
